Data taken from patent US9080216B2, “Genetic changes in ATM and ATR/CHEK1 as prognostic indicators in cancer” (University of Pittsburgh-of the CommonWealth System of …, priority 2007, dated 2015).
“Also recorded” adds a separate entry of the source.

Legend:
Type in all cases: cell-based, human
[1] = tested on: OSCC; test: Cell cycle analysis by flow cytometry after caffeine and irradiation; conditions: following irradiation
Experimental: Cell Cycle Analysis by Flow Cytometry. […] These cells were washed with phosphate-buffered saline (PBS), and fixed with 70% ethanol. The cells were then treated with 80 μg/ml RNase A and 50 μg/ml propidium iodide (Invitrogen-Molecular Probes, Carlsbad, Calif.) for 45 min at 37° C. The stained cells were analyzed using a Coulter Epics XL Flow Cytometer in the UPCI Flow Cytometry Facility.

[2] = tested on: UPCI:SCC104; test: Cell cycle analysis by flow cytometry; conditions: 1 mM or 5 mM caffeine 1 h prior to 5 Gy IR
Experimental: Cell Cycle Analysis by Flow Cytometry. […] These cells were washed with phosphate-buffered saline (PBS), and fixed with 70% ethanol. The cells were then treated with 80 μg/ml RNase A and 50 μg/ml propidium iodide (Invitrogen-Molecular Probes, Carlsbad, Calif.) for 45 min at 37° C. The stained cells were analyzed using a Coulter Epics XL Flow Cytometer in the UPCI Flow Cytometry Facility. SiRNA Transfection. ATR or CHEK1 inhibitions were carried out using the respective siRNAs for a specific knockout. RNA interference of ATR and CHEK1 was performed using Smartpool ATR and CHEK1 duplexes respectively, obtained from Dharmacon (Lafayette, Colo.). Nonspecific (scrambled) control duplexes (Dharmacon) were used for nonspecific siRNA treatment. The duplexes were reconstituted in 1×DNA-free RNA re-suspension buffer provided by Dharmacon and aliquoted according to the manufacturer's instructions. For transfection, the OSCC cell lines were seeded in 60 mm dishes or T25 flasks and transfected with siRNA duplexes using Lipofectamine 2000 (Invitrogen) according to the manufacturer's instructions. The individual siRNA duplex sequences are enumerated in Appendix B. The final working siRNA concentration achieved was between 90-100 nM. […]

[3] = tested on: UPCI:SCC084; test: Clonogenic cell survival assay
Experimental: (§1) Clonogenic Cell Survival Assay. To assess cell survival in response to ionizing radiation, clonogenic survival assays were performed. Two thousand cells were seeded in 60 mm Petri dishes and allowed to adhere overnight. […] The culture medium was replaced at the end of 7 days. Untreated cells cultured in parallel were used to determine relative plating efficiency. After 12 days, the cells were fixed with 70% ethyl alcohol and stained with Giemsa (Sigma, St. Louis, Mo.) and the number of colonies was assessed. A colony was defined as a cluster of ≧50 cells, having formed from a single cell. All experiments were performed in triplicate, and the error reported as one standard deviation from the mean.

[4] = tested on: UPCI:SCC104; test: Clonogenic cell survival assay
Experimental: as §1
SiRNA Transfection. ATR or CHEK1 inhibitions were carried out using the respective siRNAs for a specific knockout. RNA interference of ATR and CHEK1 was performed using Smartpool ATR and CHEK1 duplexes respectively, obtained from Dharmacon (Lafayette, Colo.). Nonspecific (scrambled) control duplexes (Dharmacon) were used for nonspecific siRNA treatment. The duplexes were reconstituted in 1×DNA-free RNA re-suspension buffer provided by Dharmacon and aliquoted according to the manufacturer's instructions. For transfection, the OSCC cell lines were seeded in 60 mm dishes or T25 flasks and transfected with siRNA duplexes using Lipofectamine 2000 (Invitrogen) according to the manufacturer's instructions. The individual siRNA duplex sequences are enumerated in Appendix B. The final working siRNA concentration achieved was between 90-100 nM. We used cells treated with no vector (untreated), empty vector (mock-treated), cells transfected with a nonspecific siRNA, and a specific ATR or CHEK1 siRNA for all of our experiments. At the end of 48 h post-transfection, appropriate treatments (ionizing radiation or aphidicolin treatment) were carried out as described earlier.

[5] = cell lines with an upregulated ATR-CHEK1 pathway including GM09607 (AT cells)
[6] = different doses of caffeine, compared to UPCI:SCC066, 105 and control NHOK

Compound: Cn1c(=O)c2c(ncn2C)n(C)c1=O [caffeine]
- sensitivity to caffeine (cell cycle profile) ([1]; cell lines with an intact G1 checkpoint and normal ATR-CHEK1 expression): did not demonstrate any sensitivity
- accumulation of cells in the S and G2M phases [1, 5]: clearly reduced
- sub-G0 population (dead cells) [1, 5]: increased
- G2M accumulation [2]: dose dependent reduction
- sub G0 peak (dead cells) [2]: increase
- reduction in colony survival ([3]; 0.5 mM caffeine, UPCI:SCC084, absence of any DNA damaging agents): > 50%
- colony survival ([3]; 1 mM caffeine, UPCI:SCC084): complete absence of survival; also recorded: Complete inhibition of colony formation
- sensitivity to caffeine (clonogenic cell survival) [3, 6]: increased sensitivity
- reduction in colony survival ([4]; 0.5 mM caffeine, UPCI:SCC104, absence of any DNA damaging agents): > 50%
- colony survival ([4]; 1 mM caffeine, UPCI:SCC104): complete absence of survival
- sensitivity to caffeine (clonogenic cell survival) [4, 6]: increased sensitivity
